Assay results: paper doi:10.1101/2021.03.09.434688v1 (biorxiv, 2021)

Molecular target: T1, PsnB (Plesiocystis pacifica, UniProt A6G4D7)
T1 sequence (A6G4D7 1-314): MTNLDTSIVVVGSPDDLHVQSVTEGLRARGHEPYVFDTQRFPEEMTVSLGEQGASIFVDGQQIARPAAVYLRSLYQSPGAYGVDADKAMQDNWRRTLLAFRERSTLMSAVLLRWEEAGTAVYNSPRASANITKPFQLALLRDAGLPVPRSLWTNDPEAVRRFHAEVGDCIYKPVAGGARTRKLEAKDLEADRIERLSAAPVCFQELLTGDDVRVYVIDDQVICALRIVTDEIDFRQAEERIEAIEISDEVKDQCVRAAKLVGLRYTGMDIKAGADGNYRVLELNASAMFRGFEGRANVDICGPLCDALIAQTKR
T1 sequence (A6GH40 14-38 partner): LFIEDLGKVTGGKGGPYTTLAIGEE
Experiment: X-ray crystal structure of the complex
Assay type: binding
Details: complex with minimal precursor PsnA2_14-38 and Mg; nucleotide 5 mM; ATP site

Compound	X-ray crystal structure of the complex
Nc1ncnc2c1ncn2[C@@H]1O[C@H](COP(=O)(O)OP(=O)(O)O)[C@@H](O)[C@H]1O [ADP]	For PsnB-MP-ADP (7DRM)
Nc1ncnc2c1ncn2[C@@H]1O[C@H](COP(=O)(O)OP(=O)(O)NP(=O)(O)O)[C@@H](O)[C@H]1O [AMPPNP]	PsnB-MP-AMPPNP (7DRN)
